From patent US7335674B2, “Benzothiazole-4,7-diones and benzoxazole-4,7-diones with substituents in position 5 or 6 and method for production thereof” (Societe de Conseils de Recherches et d'Applications …, priority 2003, dated 2008)
pIC50: −log10 of the molar value.

Key:
[1] = test system: Mia-Paca2 (human pancreas cancer cells); assay: Antiproliferative activity, WST1 colorimetric test, Mia-PaCa2; type: cell-based; settings: MIA PaCa-2, Mia-Paca2, treated 96 hours, up to 10 μM, read-out: IC50 on the cell proliferation of the Mia-Paca2 lines
Method: (§1) iii) Characterization of the Antiproliferative Activity:
(§2) By way of example, the effect of a treatment on two human cell lines Mia-Paca2 and DU145 by the compounds of the examples described previously will be studied. The cell lines DU145 (human prostate cancer cells) and Mia-PaCa2 (human pancreas cancer cells) were acquired from the American Tissue Culture Collection (Rockville, Md., USA). The cells placed in 80 μl of Dulbecco's Modified Eagle's medium (Gibco-Brl, Cergy-Pontoise, France) completed with 10% foetal calf serum inactivated by heating (Gibco-Brl, Cergy-Pontoise, France), 50,000 units/l of penicillin and 50 mg/l of streptomycin (Gibco-Brl, 10378-057, Cergy-Pontoise, France), and 2 mM of glutamine (Gibco-Brl, Cergy-Pontoise, France) were seeded on a 96-well plate on day 0. The cells were treated on day 1 for 96 hours with increasing concentrations of each of the compounds to be tested up to 10 μM. At the end of this period, quantification of cell proliferation is evaluated by a colorimetric test based on the cleavage of the tetrazolium salt WST1 by the mitochondrial dehydrogenases in viable cells leading to the formation of formazan (Boehringer Mannheim, Meylan, France). These tests are carried out in duplicate with 8 determinations per concentration tested. For each compound to be tested, the values included in the linear part of the sigmoid were retained for a linear regression analysis and used to estimate the inhibitory concentration IC50. The products are solubilized in dimethylsulphoxide (DMSO) at 10^−2 M and finally used in culture with 0.1% DMSO.

[2] = test system: DU145 (human prostate cancer cells); assay: Antiproliferative activity, WST1 colorimetric test, DU145; type: cell-based; settings: DU-145, treated 96 hours, up to 10 μM, read-out: IC50 on the cell proliferation of the DU-145 lines
Method: as §1, §2

Structure (SMILES) | pIC50 [1] | pIC50 [2] | melting point [°C]
CN(C)CCNC1=CC(=O)c2sc(-c3c(F)cccc3F)nc2C1=O [Example 1, 2-(2,6-difluorophenyl)-5-{[2-(dimethylamino)ethyl]amino}-1,3-benzothiazole-4,7-dione] | ≥ 5.00 | ≥ 5.00 | –
CN(C)CCNC1=CC(=O)c2sc(-c3cc(Cl)sc3Cl)nc2C1=O [Example 2, 2-(2,5-dichlorothien-3-yl)-5-{1-[2-(dimethylamino)ethyl]amino}-1,3-benzothiazole-4,7-dione] | ≥ 5.00 | ≥ 5.00 | –
O=C1C(NCCN2CCCC2)=CC(=O)c2sc(-c3cc(Cl)sc3Cl)nc21 [Example 3, 2-(2,5-dichlorothien-3-yl)-5-[(2-pyrrolidin-1-ylethyl)amino]-1,3-benzothiazole-4,7-dione] | ≥ 5.00 | ≥ 5.00 | –
CN(C)CCNC1=CC(=O)c2sc(-c3ccc(F)cc3)nc2C1=O [Example 4, 5-{[2-(dimethylamino)ethyl]amino}-2-(4-fluorophenyl)-1,3-benzothiazole4,7-dione] | ≥ 5.00 | ≥ 5.00 | –
O=C1C(NCCN2CCCC2)=CC(=O)c2sc(-c3ccc(F)cc3)nc21 [Example 5, 2-(4-fluorophenyl)-5-[(2-pyrrolidin-1-ylethyl)amino]-1,3-benzothiazole-4,7-dione] | ≥ 5.00 | ≥ 5.00 | –
CN(C)CCNC1=CC(=O)c2sc(-c3c(F)cccc3Cl)nc2C1=O [Example 6, 2-(2-chloro-6-fluorophenyl)-5-{[2-(dimethylamino)ethyl]amino}-1,3-benzothiazole4,7-dione] | ≥ 5.00 | ≥ 5.00 | –
O=C1C(NCCN2CCCC2)=CC(=O)c2sc(-c3c(F)cccc3Cl)nc21 [Example 7, 2-(2-chloro-6-fluorophenyl)-5-[(2-pyrrolidin-1-ylethyl)amino]-1,3-benzothiazole-4,7-dione] | ≥ 5.00 | ≥ 5.00 | –
CN(C)CCNC1=CC(=O)c2nc(-c3ccc(F)cc3)sc2C1=O [Example 8, 6-{[2-(dimethylamino)ethyl]amino}-2-(4-fluorophenyl)-1,3-benzothiazole4,7-dione] | ≥ 5.00 | ≥ 5.00 | 246 to 247
CN(C)CCNC1=CC(=O)c2nc(-c3cccc4ccccc34)sc2C1=O [Example 9, 6-{[2-(dimethylamino)ethyl]amino}-2-(1-naphthyl)-1,3-benzothiazole-4,7-dione] | ≥ 5.00 | ≥ 5.00 | 172 to 173
CN(C)CCNC1=CC(=O)c2nc(-c3ccc(-c4ccccc4)cc3)sc2C1=O [Example 10, 2-(1,1′-biphenyl-4-yl)-6-{[2-(dimethylamino)ethyl]amino}-1,3-benzothiazole-4,7-dione] | ≥ 5.00 | ≥ 5.00 | 194 to 195
CCCCc1ccc(-c2nc3c(s2)C(=O)C(NCCN(C)C)=CC3=O)cc1 [Example 11, 2-(4-butylphenyl)-6-{[2-(dimethylamino)ethyl]amino}-1,3-benzothiazole-4,7-dione] | ≥ 5.00 | ≥ 5.00 | 126 to 127
CN(C)CCNC1=CC(=O)c2nc(-c3c(F)cccc3Cl)sc2C1=O [Example 12, 2-(2-chloro-6fluorophenyl)-6-{[2-(dimethylamino)ethyl]amino}-1,3-benzothiazole-4,7-dione] | ≥ 5.00 | ≥ 5.00 | –
CN(C)CCNC1=CC(=O)c2nc(-c3ccc4ccccc4c3)sc2C1=O [Example 13, 6-{[2-(dimethylamino)ethyl]amino}-2-(2-naphthyl)-1,3-benzothiazole-4,7-dione] | ≥ 5.00 | ≥ 5.00 | 167 to 168
CN(C)CCNC1=CC(=O)c2nc(-c3cc(F)ccc3F)sc2C1=O [Example 14, 2-(2,5-difluorophenyl)-6-{[2-(dimethylamino)ethyl]amino}-1,3-benzothiazole-4,7-dione] | ≥ 5.00 | ≥ 5.00 | –
CN(C)CCNC1=CC(=O)c2oc(-c3cc(F)ccc3F)nc2C1=O [Example 15, 2-(2,5-difluorophenyl)-5-{[2-(dimethylamino)ethyl]amino}-1,3-benzoxazole-4,7-dione] | ≥ 5.00 | ≥ 5.00 | 181 to 182
CN(C)CCNC1=CC(=O)c2oc(-c3ccccc3Br)nc2C1=O [Example 16, 2-(2-bromophenyl)-5-{[2-(dimethylamino)ethyl]amino}-1,3-benzoxazole4,7-dione] | ≥ 5.00 | ≥ 5.00 | 153 to 154
CN(C)CCNC1=CC(=O)c2oc(-c3cccc(Br)c3)nc2C1=O [Example 17, 2-(3-bromophenyl)-5-{[2-(dimethylamino)ethyl]amino}-1,3-benzoxazole-4,7-dione] | ≥ 5.00 | ≥ 5.00 | 187 to 188
CN(C)CCNC1=CC(=O)c2oc(-c3ccc(F)cc3)nc2C1=O [Example 18, 5-{[2-(dimethylamino)ethyl]amino}-2-(4-fluorophenyl)-1,3-benzoxazole-4,7-dione] | ≥ 5.00 | ≥ 5.00 | 181 to 182
CN(C)CCNC1=CC(=O)c2oc(-c3cc(F)cc(F)c3)nc2C1=O [Example 19, 2-(3,5-difluorophenyl)-5-{[2-(dimethylamino)ethyl]amino}-1,3-benzoxazole-4,7-dione] | ≥ 5.00 | ≥ 5.00 | 187 to 188
CN(C)CCNC1=CC(=O)c2oc(-c3cccc(F)c3F)nc2C1=O [Example 20, 2-(2,3-difluorophenyl)-5-{[2-(dimethylamino)ethyl]amino}-1,3-benzoxazole-4,7-dione] | ≥ 5.00 | ≥ 5.00 | 178 to 179
CN(C)CCNC1=CC(=O)c2oc(-c3cc(F)c(F)c(F)c3)nc2C1=O [Example 21, 5-{[2-(dimethylamino)ethyl]amino}-2-(3,4,5-trifluorophenyl)-1,3-benzoxazole4,7-dione] | ≥ 5.00 | ≥ 5.00 | –
CN(C)CCNC1=CC(=O)c2nc(-c3cc(F)ccc3F)oc2C1=O [Example 27, 2-(2,5-difluorophenyl)-6-{[2-(dimethylamino)ethyl]amino}-1,3-benzoxazole-4,7-dione] | ≥ 5.00 | ≥ 5.00 | –
COc1cc(-c2nc3c(o2)C(=O)C(NCCN(C)C)=CC3=O)cc(OC)c1OC [Example 40, 6-{[2-(dimethylamino)ethyl]amino}-2-(3,4,5-trimethoxyphenyl)-1,3-benzoxazole-4,7-dione] | ≥ 5.00 | ≥ 5.00 | –
CCc1ccc(-c2nc3c(o2)C(=O)C(NCCN2CCCC2)=CC3=O)cc1 [Example 54, 2-(4-ethylphenyl)-6-[(2-pyrrolidin-1-ylethyl)amino]-1,3-benzoxazole-4,7-dione] | ≥ 5.00 | ≥ 5.00 | –
COc1cc(-c2nc3c(o2)C(=O)C(NCCN2CCCC2)=CC3=O)cc(OC)c1OC [Example 56, 6-[(2-pyrrolidin-1-ylethyl)amino]-2-(3,4,5-trimethoxyphenyl)-1,3-benzoxazole-4,7-dione] | ≥ 5.00 | ≥ 5.00 | –
CCCCCCc1nc2c(s1)C(=O)C(NCCN(C)C)=CC2=O [Example 60, 6-{[2-(dimethylamino)ethyl]amino}-2-hexyl-1,3-benzothiazole-4,7-dione] | ≥ 5.00 | ≥ 5.00 | –
